Reference: patent US9446130B2, “BTK inhibitors” (MERCK SHARP & DOHME CORP., priority 2013, dated 2016)

Each compound was assayed against BTK enzyme (hBTK, full-length recombinant) (Homo sapiens (Human), UniProt Q06187) (assay: Btk enzyme activity assay, Method B: LANCE TR-FRET). Conditions: 25 μM ATP, 60 minute compound & enzyme incubation.
Type: biochemical
Method: Also BTK enzymatic activity was determined with the LANCE (Lanthanide Chelate Excite) TR-FRET (Time-resolved fluorescence resonance energy transfer) assay. […] The final reaction in each well of 10 μL consists of 100 pM hBTK, 2 μM biotin-A5-peptide, and 25 μM ATP. Phosphorylation reactions were allowed to proceed for 120 minutes. […] After 60 minutes incubation with detection reagents, reaction plates were read on a PerkinElmer EnVision plate reader using standard TR-FRET protocol. Briefly, excitation of donor molecules (Eu-chelate:anti-phospho-antibody) with a laser light source at 337 nm produces energy that can be transferred to Dylight-650 acceptor molecules if this donor:acceptor pair is within close proximity. Fluorescence intensity at both 665 nm (acceptor) and 615 nm (donor) are measured and a TR-FRET ratio calculated for each well (acceptor intensity/donor intensity). IC50 values were determined by 4 parameter robust fit of TR-FRET ratio values vs. (Log10) compound concentrations. BTK enzymatic activity was determined with the LANCE (Lanthanide Chelate Excite) TR-FRET (Time-resolved fluorescence resonance energy transfer) assay. […] The final reaction in each well of 10 μL consists of 50 pM hBTK, 2 μM biotin-A5-peptide, and 25 μM ATP. Phosphorylation reactions were allowed to proceed for 120 minutes. […] After 60 minutes incubation with detection reagents, reaction plates were read on a PerkinElmer EnVision plate reader using standard TR-FRET protocol. Briefly, excitation of donor molecules (Eu-chelate:anti-phospho-antibody) with a laser light source at 337 nm produces energy that can be transferred to Dylight-650 acceptor molecules if this donor:acceptor pair is within close proximity. Fluorescence intensity at both 665 nm (acceptor) and 615 nm (donor) are measured and a TR-FRET ratio calculated for each well (acceptor intensity/donor intensity). IC50 values were determined by 4 parameter robust fit of TR-FRET ratio values vs. (Log10) compound concentrations.

Chain of BTK enzyme (hBTK, full-length recombinant) (Q06187 whole entry): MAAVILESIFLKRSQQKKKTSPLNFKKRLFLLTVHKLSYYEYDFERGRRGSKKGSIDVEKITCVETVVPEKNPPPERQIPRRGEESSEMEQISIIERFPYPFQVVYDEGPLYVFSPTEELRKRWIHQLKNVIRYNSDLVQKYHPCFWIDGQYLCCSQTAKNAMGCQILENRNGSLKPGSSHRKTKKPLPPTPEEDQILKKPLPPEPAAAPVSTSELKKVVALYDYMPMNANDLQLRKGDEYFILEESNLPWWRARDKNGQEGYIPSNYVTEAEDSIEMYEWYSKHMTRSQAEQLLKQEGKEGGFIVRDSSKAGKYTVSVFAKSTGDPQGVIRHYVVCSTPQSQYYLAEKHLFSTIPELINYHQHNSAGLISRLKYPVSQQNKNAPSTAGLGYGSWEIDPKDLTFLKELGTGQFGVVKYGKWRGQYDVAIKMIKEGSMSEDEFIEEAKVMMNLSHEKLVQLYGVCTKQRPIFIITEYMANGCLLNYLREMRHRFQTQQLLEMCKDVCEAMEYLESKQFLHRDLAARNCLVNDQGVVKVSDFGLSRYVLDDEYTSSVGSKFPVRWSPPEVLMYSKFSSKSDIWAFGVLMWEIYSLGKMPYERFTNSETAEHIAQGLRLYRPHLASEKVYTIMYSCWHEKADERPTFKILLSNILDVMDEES

Compared with Nc1ncnc2c1c(-c1ccc(C(=O)Nc3cc(C(F)(F)F)ccn3)cc1)nn2[C@@H]1CCCc2c1cnn2CCO [Example 15, (R)-4-(4-amino-1-(1-(2-hydroxyethyl)-4,5,6,7-tetrahydro-1H-indazol-4-yl)-1H-pyrazolo[3,4-d]pyrimidin-3-yl)-N-(4-(trifluoromethyl)pyridin-2-yl)benzamide], Nc1ncnc2c1c(-c1ccc(C(=O)Nc3cc(C(F)(F)F)ccn3)cc1)nn2[C@H]1CCCc2c1cnn2CCO [Example 17, (S)-4-(4-amino-1-(1-(2-hydroxyethyl)-4,5,6,7-tetrahydro-1H-indazol-4-yl)-1H-pyrazolo[3,4-d]pyrimidin-3-yl)-N-(4-(trifluoromethyl)pyridin-2-yl)benzamide] is 1.9-fold higher in IC50: 1.1 nM for the first, 2.1 nM for the second.

Going from Nc1nccn2c([C@H]3CCn4c(nnc4C(F)(F)F)C3)nc(-c3ccc(C(=O)Nc4cc(C(F)(F)F)ccn4)cc3)c12 [Example 21, (S)-4-(8-amino-3-(3-(trifluoromethyl)-5,6,7,8-tetrahydro-[1,2,4]triazolo[4,3-a]pyridin-7-yl)imidazo[1,5-a]pyrazin-1-yl)-N-(4-(trifluoromethyl)pyridin-2-yl)benzamide] to Nc1nccn2c([C@H]3CCCn4c(C5CC5)nnc43)nc(-c3ccc(C(=O)Nc4cc(C(F)(F)F)ccn4)cc3)c12 [Example 20, (R)-4-(8-amino-3-(3-cyclopropyl-5,6,7,8-tetrahydro-[1,2,4]triazolo[4,3-a]pyridin-8-yl)imidazo[1,5-a]pyrazin-1-yl)-N-(4-(trifluoromethyl)pyridin-2-yl)benzamide], the IC50 rises from 0.81 nM to 56 nM (69-fold).

Compared with Cn1ncc2c1CCC[C@]2(O)c1nc(-c2ccc(C(=O)Nc3cc(C(F)(F)F)ccn3)cc2)c2c(N)nccn12 [Example 3, (R)-4-(8-amino-3-(4-hydroxy-1-methyl-4,5,6,7-tetrahydro-1H-indazol-4-yl)imidazo[1,5-a]pyrazin-1-yl)-N-(4-(trifluoromethyl)pyridin-2-yl)benzamide], Cn1ncc2c1CCC[C@@H]2c1nc(-c2ccc(C(=O)Nc3cc(C(F)(F)F)ccn3)cc2)c2c(N)nccn12 [Example 24, (S)-4-(8-amino-3-(1-methyl-4,5,6,7-tetrahydro-1H-indazol-4-yl)imidazo[1,5-a]pyrazin-1-yl)-N-(4-(trifluoromethyl)pyridin-2-yl)benzamide] is 370-fold higher in IC50: 2 nM for the first, 740 nM for the second.

Compared with CC(C)Oc1ccnc(NC(=O)c2ccc(-c3nc(N4CCn5c(nnc5C(F)(F)F)C4)n4ccnc(N)c34)cc2)c1 [Example 25, 4-(8-amino-3-(3-(trifluoromethyl)-5,6-dihydro-[1,2,4]triazolo[4,3-a]pyrazin-7(8H)-yl)imidazo[1,5-a]pyrazin-1-yl)-N-(4-isopropoxypyridin-2-yl)benzamide], Nc1nccn2c([C@@H]3CCCn4c(C5CC5)nnc43)nc(-c3ccc(C(=O)Nc4cc(C(F)(F)F)ccn4)cc3)c12 [Example 19, (S)-4-(8-amino-3-(3-cyclopropyl-5,6,7,8-tetrahydro-[1,2,4]triazolo[4,3-a]pyridin-8-yl)imidazo[1,5-a]pyrazin-1-yl)-N-(4-(trifluoromethyl)pyridin-2-yl)benzamide] is 1.6-fold higher in IC50: 43 nM for the first, 67 nM for the second.

Compared with Nc1ncnc2c1c(-c1ccc(C(=O)Nc3cc(C(F)(F)F)ccn3)cc1)nn2[C@H]1CCCc2nn(CCO)cc21 [Example 18, (S)-4-(4-amino-1-(2-(2-hydroxyethyl)-4,5,6,7-tetrahydro-2H-indazol-4-yl)-1H-pyrazolo[3,4-d]pyrimidin-3-yl)-N-(4-(trifluoromethyl)pyridin-2-yl)benzamide], CCn1cc2c(n1)CCC[C@H]2n1nc(-c2ccc(C(=O)Nc3cc(C(F)(F)F)ccn3)cc2)c2c(N)ncnc21 [Example 12, (R)-4-(4-amino-1-(2-ethyl-4,5,6,7-tetrahydro-2H-indazol-4-yl)-1H-pyrazolo[3,4-d]pyrimidin-3-yl)-N-(4-(trifluoromethyl)pyridin-2-yl)benzamide] is 10-fold higher in IC50: 1.3 nM for the first, 13 nM for the second. The first is the more potent here.

Cn1ncc2c1CCC[C@H]2n1nc(-c2ccc(C(=O)Nc3cc(C(F)(F)F)ccn3)cc2)c2c(N)ncnc21 [Example 7, (R)-4-(4-amino-1-(1-methyl-4,5,6,7-tetrahydro-1H-indazol-4-yl)-1H-pyrazolo[3,4-d]pyrimidin-3-yl)-N-(4-(trifluoromethyl)pyridin-2-yl)benzamide] and CCn1ncc2c1CCC[C@@H]2n1nc(-c2ccc(C(=O)Nc3cc(C(F)(F)F)ccn3)cc2)c2c(N)ncnc21 [Example 13, (S)-4-(4-amino-1-(1-ethyl-4,5,6,7-tetrahydro-1H-indazol-4-yl)-1H-pyrazolo[3,4-d]pyrimidin-3-yl)-N-(4-(trifluoromethyl)pyridin-2-yl)benzamide] are the same in IC50: 5.9 nM for the first, 5.9 nM for the second.

Going from CCn1cc2c(n1)CCC[C@@H]2n1nc(-c2ccc(C(=O)Nc3cc(C(F)(F)F)ccn3)cc2)c2c(N)ncnc21 [Example 14, (S)-4-(4-amino-1-(2-ethyl-4,5,6,7-tetrahydro-2H-indazol-4-yl)-1H-pyrazolo[3,4-d]pyrimidin-3-yl)-N-(4-(trifluoromethyl)pyridin-2-yl)benzamide] to Cn1cc2c(n1)CCC[C@H]2n1nc(-c2ccc(C(=O)Nc3cc(C(F)(F)F)ccn3)cc2)c2c(N)ncnc21 [Example 8, (R)-4-(4-amino-1-(2-methyl-4,5,6,7-tetrahydro-2H-indazol-4-yl)-1H-pyrazolo[3,4-d]pyrimidin-3-yl)-N-(4-(trifluoromethyl)pyridin-2-yl)benzamide], the IC50 falls from 54 nM to 3.2 nM (17-fold).

Compared with Cn1ncc2c1CCC[C@H]2c1nc(-c2ccc(C(=O)Nc3cc(C(F)(F)F)ccn3)cc2)c2c(N)nccn12 [Example 23, (R)-4-(8-amino-3-(1-methyl-4,5,6,7-tetrahydro-1H-indazol-4-yl)imidazo[1,5-a]pyrazin-1-yl)-N-(4-(trifluoromethyl)pyridin-2-yl)benzamide], CCn1ncc2c1CCC[C@H]2n1nc(-c2ccc(C(=O)Nc3cc(C(F)(F)F)ccn3)cc2)c2c(N)ncnc21 [Example 11, (R)-4-(4-amino-1-(1-ethyl-4,5,6,7-tetrahydro-1H-indazol-4-yl)-1H-pyrazolo[3,4-d]pyrimidin-3-yl)-N-(4-(trifluoromethyl)pyridin-2-yl)benzamide] is 310-fold lower in IC50: 1000 nM for the first, 3.2 nM for the second. The second is the more potent here.

Cn1cc2c(n1)CCC[C@@H]2n1nc(-c2ccc(C(=O)Nc3cc(C(F)(F)F)ccn3)cc2)c2c(N)ncnc21 [Example 10, (S)-4-(4-amino-1-(2-methyl-4,5,6,7-tetrahydro-2H-indazol-4-yl)-1H-pyrazolo[3,4-d]pyrimidin-3-yl)-N-(4-(trifluoromethyl)pyridin-2-yl)benzamide] and Nc1ncnc2c1c(-c1ccc(C(=O)Nc3cc(C(F)(F)F)ccn3)cc1)nn2[C@H]1CCCc2[nH]ncc21 [Example 6, (S)-4-(4-amino-1-(4,5,6,7-tetrahydro-1H-indazol-4-yl)-1H-pyrazolo[3,4-d]pyrimidin-3-yl)-N-(4-(trifluoromethyl)pyridin-2-yl)benzamide] are within 1.5-fold of each other in IC50: 83 nM for the first, 60 nM for the second.

Compound Nc1ncnc2c1c(-c1ccc(C(=O)Nc3cc(C(F)(F)F)ccn3)cc1)nn2[C@@H]1CCCc2[nH]ncc21 [Example 5, (R)-4-(4-amino-1-(4,5,6,7-tetrahydro-1H-indazol-4-yl)-1H-pyrazolo[3,4-d]pyrimidin-3-yl)-N-(4-(trifluoromethyl)pyridin-2-yl)benzamide] has an IC50 of 0.52 nM.
